Assay results taken from PMC12040169 (PLOS Biology, 2025).

Experiment: in vitro
Conditions: human, hela cells, % viability

| Structure (SMILES) | viability at 28.5 h, 10 µM [%] |
| --- | --- |
| c1ccc(CCNc2nc(-c3ccc(N4CCOCC4)cc3)cn3ccnc23)nc1 [CBK037271] | 96.4 |
| CN(C)c1ccc(C2C(C(=O)c3ccccc3)=C(O)C(=O)N2CCCC(=O)O)cc1 (centres unmarked) [CBK263393] | 96.4 |
| O=C1c2cc(-c3nc(-c4ccccc4)[nH]c3-c3ccccc3)ccc2-c2ccc([N+](=O)[O-])cc21 [CBK262613] | 85 |
| CC1CC(C)CN(C(=O)c2ccccc2NC(=O)C2CC(=O)Nc3ccccc32)C1 (centres unmarked) [CBK297760] | 81.8 |
| COc1cccc2c1ncc1c(=O)nc(N)sc12 [CBK291241] | 88.9 |
| CCCC/C=C/c1cnc(N)c(Nc2ccc(OC)cc2C)n1 [CBK064090] | 101 |
| Cc1nn(CCC#N)c(C)c1[C@@H]1C=C[C@@H](NC(=O)Nc2ccc(Cl)cc2)C1 [CBK288803] | 95.8 |
| O=C(Nc1nnc(COc2ccccc2)s1)c1cccc2ccccc12 [CBK300487] | 97.6 |
| O=C(Cn1ncc2cccn2c1=O)c1ccc(F)cc1 [CBK283627] | 82.7 |
| CC1(CNC(=O)c2cc(-c3cccc(F)c3)no2)COC1 [CBK281751] | 87.7 |
| CCc1nc2c(OCCOc3ccc(F)cc3)cccn2c1N(C)C(=O)c1ccncc1 [CBK147472] | 93.6 |
| CCOCCc1nsc(NS(=O)(=O)c2cccc(Cl)c2C)n1 [CBK034245] | 102 |
| CCN(CC)CCN(C)Cc1ccccc1Br [CBK026593] | 92.8 |
| Cc1ccc(C)c(C(NC(=O)CCCn2ccnc2)c2ccncc2)c1 (centres unmarked) [CBK281476] | 96.1 |
| COc1ccc(C(=O)[C@@H]2CCCN(C(=O)OC(C)(C)C)C2)cc1 [CBK284308] | 98.7 |
| CCCc1cc(C(N)=O)c(NC(=O)c2sc3ccccc3c2Cl)s1 [CBK268178] | 103 |
| Cc1ccc(OCC(=O)Nc2cccnc2)c(-n2nc3ccccc3n2)c1 [CBK270281] | 90.9 |
| CN1CCN(CCC(=O)N2CCN(c3ncccn3)CC2)CC1 [CBK144520] | 84.5 |

| Structure (SMILES) | viability at 28.5 h, 10 µM [%] |
| --- | --- |
| CC(C)(CNC(=O)Cn1cnc2ccccc21)N1CCCCC1 [CBK281879] | 95.8 |
| Cc1ccc(C(=O)NCCC(=O)Nc2ccccc2C)cc1 [CBK268569] | 103 |
| CCn1cncc1CN(Cc1ccc(F)cc1)CC1CCCO1 (centres unmarked) [CBK283036] | 98 |
| Cc1ccc(S(=O)(=O)Nc2ccc(C3(c4ccc(NS(=O)(=O)c5ccc(C)cc5)cc4)c4ccccc4C(=O)c4ccccc43)cc2)cc1 [CBK261155] | 111 |
| COc1cc(CN2CCN(c3ccccn3)CC2)ccc1OCc1ccccc1 [CBK261906] | 88.8 |
| N#Cc1ccccc1Cn1ccc2c(N3CCNCC3)cccc21 [CBK200015C] | 102 |
| COc1ccc(CCNC(=O)/C=C/C(=O)O)cc1OC [CBK265373] | 103 |
| CCOC(=O)N1CCN(C(=O)C2CC=CCC2C(=O)O)CC1 (centres unmarked) [CBK266142] | 104 |
| CN(CCCC(=O)O)c1nc(-c2ccc(Br)cc2)cs1 [CBK299834] | 88.6 |
| CCn1cc(CN2CCN(C(=O)c3csc(C(C)C)c3)CC2)cn1 [CBK282044] | 88.1 |
| COCCNC(=O)c1cnc(-c2ccccc2)c(-c2cccnc2)c1 [CBK037515] | 106 |
| COc1ccc(-c2cc(C(=O)NCc3cccnc3)c3cc(Br)ccc3n2)cc1 [CBK293958] | 86.1 |
| CC(=O)Nc1cccc(CN(C)C(CCO)c2ccccc2)c1 (centres unmarked) [CBK305127] | 95.8 |
| Brc1c(OCCNCCN2CCOCC2)ccc2ccccc12 [CBK268576G] | 115 |
| Cc1nc(C)c(S(=O)(=O)Nc2ccccc2-c2nnnn2C(C)C)s1 [CBK305508] | 96.3 |
| COc1ccc(C(=O)Nc2cccc(-c3nc4ccccc4[nH]3)c2)c(OC)c1 [CBK072662] | 95.4 |
| Cc1cccc(N2C(=O)c3ccc(C(=O)OC(C(=O)c4ccccc4)c4ccccc4)cc3C2=O)c1 (centres unmarked) [CBK265098] | 88.8 |
